From PMC9468151, “Identification of a binding site on soluble RANKL that can be targeted to inhibit soluble RANK-RANKL interactions and treat osteoporosis” (Nature Communications, 2022)
“And” between values parts separate entries of the source, which are not always exact repeats. Equal entries are not always repeated.

Assays:
NF-κB = assay: Reporter-gene assay for NF-κB; format: cell-based, mouse; parameters: NF-κB luciferase expression (fig. 6c): unit not given here; conditions: for NF-κB luciferase expression (fig. 6c): sRANKL stimulated; for reporter signal (fig. S3h): three replicates
Description: In order to investigate the NF-κB and NFAT transcriptional inhibition activity of selective sRANKL inhibitor, luciferase reporter gene assays were used[57]. RAW 264.7 cells stably transfected with an NF-κB luciferase reporter gene (3κB-Luc-SV40) or NFAT luciferase reporter gene were seeded into 96-well plates at a density of 1.5 × 10^5 or 1.0 × 10^5 cell per well respectively for 24 h. Cells were pretreated with compounds for 1 h, and then stimulated with sRANKL (100 ng/mL), TNF-ɑ (20 ng/mL), […] (50 ng/mL) and LPS (500 ng/mL) for 6 h for NF-κB transcriptional or 24 h for NFAT transcriptional. After treatment both cells were lysed and measured luciferase activity using a Promega Luciferase Assay system (Promega Corporation) by a Varioskan flash Multimode Microplate Reader (Thermo Scientific).

[1] = test system: osteoclast markers (DC-stamp, Ctsk, MMP9, Tracp, Oscar, Calcr); assay: RT-qPCR of osteoclast marker genes in BMMs; format: cell-based, mouse
Description: The mRNA expression level of S3-15 was measured by RT–qPCR as primary described. Total cellular RNA sample was prepared using RNAiso Plus, followed by reverse transcription with PrimeScript™ MixRT Master Mix reverse transcriptase kit. Then quantitative real-time PCR assays were performed with TB Green™ premix EX Taq™ II kit on an Applied Biosystems. […] signaling inhibiting effect was determined by western blotting. RAW264.7 cells were treated with 5 μM S3-15 with or without sRANKL (100 ng/mL) for 5, 10, 30 and 60 min after starved for 1 h. Then the cells were washed with cold PBS and lysed by RIPA Lysis Buffer. Cell lysates were then processed for Western Blotting analyses. Primary antibody binding was detected using rat secondary antibodies (1:5000) coupled with enhanced chemiluminescence (ECL) reagents (Thermo Scientific) and visualized on Tanon 5200. Primers used for qPCR and antibodies used for western blotting were seen supplementary materials for details.

[2] = test system: WT sRANKL or Q238A sRANKL induced osteoclast formation; assay: Rescue experiment: osteoclast formation induced by WT or Q238A sRANKL; format: cell-based, mouse
Description: For the osteoclast formation induced by WT and Q238A sRANKL experiments, BMMs were seeded in 96-well plate in density of 6 × 10^3 cell/ well with α-MEM completed medium containing 10 ng/mL M-CSF for 24 h. Then the cells were treated with 0 μM, 0.3 μM, 3 μM and 10 μM and stimulated with 100 ng/mLWT sRANKL or Q238A sRANKL respectively. For the osteoclast formation induced by WT, W194A, and H226A sRANKL experiments, cells were stimulated with 100 ng/mL WT sRANKL combined W194A, H226A sRANKL in different concentrations (50 ng/mL, 200 ng/mL, and 400 ng/mL) with or without 10 μM S3-15. After 5 days, osteoclasts were formed, and applied TRAP-staining as described above. TRAP-positive multinucleated cells with > 3 nuclei were scored as osteoclasts.

OVX mice = assay: Osteoporosis therapeutic study in OVX mice (micro-CT); format: in vivo, mouse; conditions: S3-15 10 mg/kg/day 4 weeks, individual animals
Description: Female SD rats or C57BL/6 mice were cared until they grown up to 6 months old or 10 weeks old, respectively. Then we subjected them to either bilateral ovariectomy or sham operation after anesthesia with 10% chloral hydrate (0.3 mL/100 g). Then all the rats or mice were intramuscular injected of penicillin to prevent infection in the first week of surgery. For rat experiments, after 12 weeks of operation, 3 rats from sham-operated or ovariectomized groups were random selected to determine bone mass by micro-CT imaging biopsy to verify successful produced bone loss(data unshown). Then the OVX rats were individually administrated with S3-15, S3, and S3-05 orally with (10 mg/kg/day) for another 12 weeks. For mouse experiments, after 4 weeks of surgery, the OVX mice were treated with 10 mg/kg/day S3-15 for another 4 weeks.
The weight of rats or mice were recorded every week in the treatment period. After treatment, the rats were harvested, the serum, heart, liver, spleen, lung, kidney, thymus, and femurs were all collected and subjected to subsequent analysis. The right femurs of rats or mice were cleaned excess soft tissue, fixed in 10% formalin, and processed them for microcomputed tomography (micro-CT) analysis. Left mice femurs were collected and excarnate for biomechanical strength testing. Mice peripheral blood were as well as collected for flow cytometry analyzing.
The right femurs of rats or mice were further analyzed with micro-CT on Inveon PET/CT (Siemens, Germany). We used micro-CT to scan the femur from the femoral head to the femoral condyle, using 19 μm resolution, 80 kV 500uA, 360 projection, 3000-6000 image threshold, full rotation cone beam. Three-dimensional reconstruction and histomorphometric analyses of trabecular bone were conducted with the IAW (Inveon analysis workstation) analysis software. […] Trabecular bone parameters were measured including bone volume/tissue volume (BV/TV), bone surface area/bone volume (BS/BV), trabecular number (Tb.N), trabecular thickness (Tb.Th), trabecular separation(Tb.Sp) and trabecular pattern factor(Tb.P.F).

[3] = BMMs, 100 ng/mL sRANKL + S3-15, relative to vehicle
[4] = versus Vehicle, three replicates

## CC(=O)/C(=N\Nc1ccccc1C(=O)O)C(=O)Nc1ccccn1 [S3-15]
NF-κB; IL-1β stimulated + S3-15
  luciferase activity (fig. S3g, taken as NF-κB): 748200 and 847300 and 792000
NF-κB; LPS stimulated + S3-15
  luciferase activity (fig. S3g, taken as NF-κB): 375600 and 397200 and 396100
NF-κB; TNF-α stimulated + S3-15
  luciferase activity (fig. S3g, taken as NF-κB): 61380 and 70860 and 74440
NF-κB; S3-15 conc. 0.08
  NF-κB luciferase expression (fig. 6c): 32.0377 and 29.8492 and 26.4557
NF-κB; S3-15 conc. 0.28
  NF-κB luciferase expression (fig. 6c): 25.9787 and 28.8312 and 30.4836
NF-κB; S3-15 conc. 0.92
  NF-κB luciferase expression (fig. 6c): 26.259 and 24.0852 and 28.8361
NF-κB; S3-15 conc. 3.03
  NF-κB luciferase expression (fig. 6c): 25.0885 and 25.1918 and 25.4328
NF-κB; S3-15 conc. 10
  NF-κB luciferase expression (fig. 6c): 23.5738 and 23.8492 and 23.6426
NF-κB; S3-15 conc. 33
  NF-κB luciferase expression (fig. 6c): 17.4311 and 18.5918 and 15.8918
NF-κB; stimulus IL-1β
  reporter signal (fig. S3h): 348400 and 323800 and 307900
NF-κB; stimulus LPS
  reporter signal (fig. S3h): 720100 and 801600 and 826800
NF-κB; stimulus TNF-α
  reporter signal (fig. S3h): 62390 and 81670 and 85200
NF-κB; without RANKL
  TNF-α, IL-β and LPS activated NF-κB: cannot affect
[1]; BMMs without RANKL
  osteoclastogenesis related gene expression without RANKL: cannot affect
[1]; [3]
  Calcr mRNA expression: 452.218 and 472.155 and 436.053
  Ctsk mRNA expression: 96.8459 and 61.7386 and 86.8018
  DC-Stemp mRNA expression: 112.451 and 102.455 and 155.105
  MMP9 mRNA expression: 167.711 and 113.637 and 211.945
  Oscar mRNA expression: 160.036 and 111.839 and 197.432
  Tracp mRNA expression: 180.942 and 181.792 and 170.309
[1]; [4]
  Calcr relative expression (fig. S3i): 0.46 and 0.59 and 1.1
  Ctsk relative expression (fig. S3i): 1.05 and 0.94 and 2.17
  DC-Stamp relative expression (fig. S3i): 0.75 and 0.62 and 1.46
  MMP9 relative expression (fig. S3i): 1.19 and 1.06 and 1.03
  Oscar relative expression (fig. S3i): 0.54 and 0.76 and 2.12
  Tracp relative expression (fig. S3i): 0.53 and 0.95 and 1.32
[2]; Q238A sRANKL
  osteoclastogenesis when incubated with Q238A sRANKL: cannot block osteoclastogenesis
[2]; Q238A sRANKL 100 ng/mL, S3-15 0.3 μM
  Number of OCs: 268 and 278 and 265
[2]; Q238A sRANKL 100 ng/mL, S3-15 3 μM
  Number of OCs: 250 and 279 and 269
[2]; Q238A sRANKL 100 ng/mL, S3-15 10 μM
  Number of OCs: 265 and 279 and 270
[2]; WT RANKL 100 ng/mL, S3-15 0.3 μM
  Number of OCs: 142 and 135 and 149
[2]; WT RANKL 100 ng/mL, S3-15 3 μM
  Number of OCs: 35 and 57 and 40
OVX mice
  BV/TV: 0.134 and 0.2459 and 0.2549 and 0.1314 and 0.1319 and 0.1667 and 0.09144 and 0.215
  Tb.N: 3.01 1/mm and 5.848 1/mm and 5.596 1/mm and 2.742 1/mm and 2.832 1/mm and 3.86 1/mm and 1.833 1/mm and 4.649 1/mm
  Tb.Th: 0.0445 mm and 0.04205 mm and 0.04556 mm and 0.04792 mm and 0.04659 mm and 0.04318 mm and 0.04987 mm and 0.04624 mm
